{"source": "patent US20140221964A1", "about": "“SYSTEMS AND METHODS FOR LOCAL DRUG DELIVERY TO KIDNEYS” (priority 2011, published 2014)", "test_system": "Spontaneously hypertensive rats", "assay": "Blood pressure and heart rate by tail-cuff after chronic local drug delivery to the renal capsule via implanted minipumps", "key": {"[1]": {"details": "local delivery to renal capsule by minipump, tail-cuff, over time"}}, "data": [{"smiles": "Clc1cccc(Cl)c1N=C1NCCN1", "note": "[clonidine]", "values": [{"measurement": "dosage resulting in the blood-pressure effect, compared with oral dosage expected for a similar result", "setting": "local delivery to renal capsule", "result": "significantly less than an oral dosage"}, {"measurement": "heart rate (side effect)", "setting": "local delivery to renal capsule by minipump", "result": "not reduced"}, {"measurement": "diastolic blood pressure", "setting": "[1]", "result": "reduced"}, {"measurement": "mean blood pressure", "setting": "[1]", "result": "reduced"}, {"measurement": "systolic blood pressure", "setting": "[1]", "result": "reduced"}]}]}
